Source: patent publication US12318380B2, “Treatment of demyelinating diseases” (priority 2018, dated 2025)
Counter-ions that a name gives are not always drawn. Like-named read-outs stand apart in the source and are kept apart here.

What was measured:
[1] = system: EAE model; details: 10 mg/kg starting at the time of immunization; cited from earlier work
[2] = system: itch; details: in vivo; cited from earlier work
[3] = Weight change in cuprizone model of demyelination; assay type: in vivo, female C57BL/6 mice
[4] = EAE-induced weight loss; assay type: in vivo, female C57BL/6 mice; details: 0.3, 0.1 or 0.03 mg/kg i.p. daily from day 17
[5] = system: activated GFAP+ astrocytes in the spinal cord; experiment: GFAP immunohistochemistry of spinal cord in EAE; assay type: in vivo, female C57BL/6 mice; details: 0.01 mg/kg i.p. daily from day 17; day 45
[6] = system: myelin in spinal cord of EAE mice; experiment: TEM of spinal cord sections in EAE; assay type: in vivo, female C57BL/6 mice; details: 0.03 mg/kg i.p. daily from day 17; day 45
[7] = system: Morphine induced scratch; details: SC; Winfuran assessment report EMA/CHMP/138212/2014; cited from earlier work
[8] = target: T1, kappa opioid receptor (KOR) (Mus musculus, UniProt P33534); experiment: EAE with KOR antagonist norBNI; assay type: in vivo, female C57BL/6 mice
T1 construct: from tissue; host or cells: whole animal: female C57BL/6 mice (EAE model)
T1 sequence (P33534 whole entry): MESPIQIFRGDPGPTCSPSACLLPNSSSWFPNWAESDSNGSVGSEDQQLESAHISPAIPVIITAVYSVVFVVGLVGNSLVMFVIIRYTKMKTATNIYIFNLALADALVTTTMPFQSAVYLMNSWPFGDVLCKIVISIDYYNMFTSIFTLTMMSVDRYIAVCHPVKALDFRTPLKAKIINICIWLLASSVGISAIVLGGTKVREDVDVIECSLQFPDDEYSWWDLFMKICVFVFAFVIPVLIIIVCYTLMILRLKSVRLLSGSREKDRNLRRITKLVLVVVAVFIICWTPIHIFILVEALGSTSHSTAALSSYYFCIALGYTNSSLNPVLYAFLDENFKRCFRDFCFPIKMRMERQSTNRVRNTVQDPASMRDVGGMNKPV

[9] = system: myelin in corpus callosum of cuprizone-treated mice; experiment: TEM of corpus callosum in cuprizone model (g-ratio, myelinated axons, myelin area); assay type: in vivo, female C57BL/6 mice
[10] = system: Substance P induced scratch; details: cited from earlier work
[11] = system: cuprizone demyelination disease model of MS; experiment: von Frey mechanical withdrawal threshold in cuprizone model; assay type: in vivo, female C57BL/6 mice; details: 0.1 mg/kg/i.p. daily from day 28 or 35
[12] = system: myelin in spinal cord of EAE mice; experiment: Luxol fast blue staining of spinal cord in EAE; assay type: in vivo, female C57BL/6 mice; details: chronic phase
[13] = system: lymphocyte populations in the spleen; experiment: Splenocyte flow cytometry in chronic phase of EAE; assay type: in vivo, female C57BL/6 mice; details: 0.01 mg/kg i.p. daily from disease onset; 27 days post treatment initiation
[14] = system: Histamine induced scratch; details: PO; Togashi et al. (2002); cited from earlier work
[15] = system: leucocyte infiltration into the spinal cord; experiment: H&E staining of spinal cord for leucocyte infiltration in EAE; assay type: in vivo, female C57BL/6 mice; details: 0.01 mg/kg i.p. daily from disease onset; chronic phase
[16] = system: infiltrating immune cells (CD45high) in the brain; experiment: Immune cell infiltration into the brain in EAE (flow cytometry); assay type: in vivo, female C57BL/6 mice
[17] = system: cuprizone model of demyelination; experiment: Rotarod assay in cuprizone model of demyelination; assay type: in vivo, female C57BL/6 mice; details: 0.1 mg/kg i.p. daily from week 4
[18] = 0.1 mg/kg/i.p. daily from day 28, day 70
[19] = nalfurafine 0.1 mg/kg/i.p. or U-50488 1.6 mg/kg/i.p. daily from day 28, day 70
[20] = norBNI 10 mg/kg i.p. weekly with nalfurafine 0.01 mg/kg i.p. daily

## CN1CCC[C@@H]1CCO[C@](C)(c1ccccc1)c1ccc(Cl)cc1 [clemastine fumarate]
[1]
  chronic disability in the EAE model: has been shown to reduce chronic disability in the EAE model

## CN(C(=O)/C=C/c1ccoc1)[C@@H]1CC[C@@]2(O)[C@H]3Cc4ccc(O)c5c4[C@@]2(CCN3CC2CC2)[C@H]1O5 [nalfurafine, (E)-N-[(4R,4aS,7R,7aR,12bS)-3-(cyclopropylmethyl)-4a,9-dihydroxy-1,2,4,5,6,7,7a,13-octahydro-4,12-methanobenzofuro[3,2-e]isoquinoline-7-yl]-3-(furan-3-yl)-N-methylprop-2-enamide]
[2]
  effective dose in humans for itch: 2.5 μg/body/day
[3]; 0.3% cuprizone 5 weeks, 0.1 mg/kg i.p. daily from week 4, 65 days (Example 7)
  % weight change: reversed significantly more effectively by administration of nalfurafine than vehicle alone
[3]; 0.3% cuprizone 35 days, nalfurafine 0.1 mg/kg or U-50488 1.6 mg/kg i.p. daily from day 28 (Example 28)
  % weight change in recovery phase: enhances recovery of the lost weight faster
[4]
  % change in body weight: mice recover from EAE-induced weight loss
[5]
  number of activated GFAP+ astrocytes per section: significantly reduces the number of activated astrocytes
[6]
  myelination of nerve axons in spinal cord (TEM): nerve axons appear healthy and well-myelinated
[7]
  Complete Inhibition: 5 to 10 µg/kg
[8]; nalfurafine 0.01 mg/kg i.p. daily with norBNI 10 mg/kg i.p. weekly
  disease reduction in the presence of norBNI: effective at reducing disease independently of the KOR
[9]; 0.1 mg/kg i.p. daily from week 4, day 65 (Example 9)
  myelin in corpus callosum (TEM): more myelin was detected, and the structure was less disorganized
[9]; [18]
  area of myelination: percentage increase in area of myelination
  number of myelinated axons: percentage increase in the number of myelinated axons
[9]; [19]
  axonal-myelin ultrastructure, repair: surprisingly similar to that of the naïve (normal) tissue
  mean g-ratio: 0.75±0.15
[10]; IV, Winfuran assessment report EMA/CHMP/138212/2014
  Complete Inhibition: 7.5-10^ μg/kg
[10]; PO, 100 μg/kg, Winfuran assessment report EMA/CHMP/138212/2014
  Inhibition printed in brackets beside the dose: 66%
[10]; PO, Togashi et al. (2002)
  Complete Inhibition: 100 µg/kg
[10]; PO, Winfuran assessment report EMA/CHMP/138212/2014
  Complete Inhibition: 100 µg/kg
[10]; SC, Winfuran assessment report EMA/CHMP/138212/2014
  Complete Inhibition: 10 µg/kg
[11]
  mechanical threshold scores vs vehicle: improved mechanical threshold scores compared to vehicle treated mice
  mechanical withdrawal threshold, pre vs post treatment: reduced to baseline levels
[12]; 0.01 mg/kg i.p. daily from disease onset
  lesion load and myelin density in ventral horn (luxol fast blue): reduces this lesion load and demyelination
[12]; 0.03 or 0.01 mg/kg i.p. daily from disease onset
  % demyelination of spinal cord (luxol fast blue): significant reduction in the percentage of demyelination
[13]
  Teff:cm ratio (effector to central memory CD4 T cells): reduced ratio in the nalfurafine-treated compared to the vehicle-treated mice
  overall number of CD4 T cells in spleen: the same between nalfurafine and vehicle treated mice
  proportion of major lymphocyte populations in spleen (% live leukocytes): do not alter the proportion of the major lymphocyte populations in the spleen
[14]
  ED50: 7.3 µg/kg
[15]
  leucocyte infiltration score (0-3), H&E: surprising reduction of infiltrating leucocytes
[16]; 0.03 mg/kg i.p. daily from day 17, day 45
  number of infiltrating immune cells in brain (ratio to microglia): significantly reduced the number of infiltrating immune cells
[16]; 0.03 and 0.01 mg/kg i.p. daily from disease onset, chronic phase (>24 days)
  number of infiltrating immune cells in brain (ratio to microglia): significantly reduced the number of infiltrating immune cells
[17]
  rotarod performance at week 9 relative to week 5: Cuprizone-induced disability was reversed

## Oc1ccc2c3c1O[C@H]1c4[nH]c5c(c4C[C@@]4(O)[C@@H](C2)N(CC2CC2)CC[C@]314)C[C@@]1(O)[C@H]2Cc3ccc(O)c4c3[C@@]1(CCN2CC1CC1)[C@H]5O4 [norBNI]
[8]; [20]
  disease score, full recovery (score <0.5): abolishes the ability of nalfurafine to enable full recovery from paralysis
  percentage recovered and number of days in recovery: abolishes the ability of nalfurafine to enable and sustain recovery from paralysis
